# Patent US12391733B2, “Stapled intracellular-targeting antimicrobial peptides to treat infection” (priority 2016, dated 2025)
# Positions of bridges follow the written chain, without caps; N, C: chain ends. Non-standard residues stand in square brackets, D forms with d. Residues, ends and D or L forms follow the SMILES beside them. R8 = C=CCCCCCC[C@@](C)(N)C(=O)O; S5 = C=CCCC[C@](C)(N)C(=O)O
# Experiments:
# circular dichroism = details: 10 mM phosphate buffer; pH 7.4; ns °C; 100 uM
# E. coli = assay type: cell-based, Escherichia coli; details: for Antimicrobial Activity NIC (μg/ml) E. coli: Table 1, microbroth dilution, refined MHB, 20-24 hours at 37° C.
# Protocol: Antimicrobial Activity Assay The following microbroth dilution protocol was adapted to determine the MIC of each peptide. First, Mueller-Hinton broth (MHB) was passed through an anion exchange column to remove polyanionic species and generate refined MHB. This refined broth was then used in the standard microbroth dilution protocol devised by Hancock et al. for 96 well plates. […] Briefly, bacterial cells were grown overnight in refined MHB at 37° C. and then diluted and allowed to grow again for several hours. Serial dilutions of peptide stocks in water (10 μl) were prepared using clear round-bottom polypropylene 96-well plates. Then 90 μl of bacteria in refined MHB was added to give a final inoculum of 5×10^5 CFU/ml. The plates were then covered with porous tape to reduce evaporation, and incubated for 20-24 hours at 37° C.
# [1] = tested on: human red blood cells (RBCs); assay type: cell-based; details: for % Hemolysis at 50 μg/ml: red cells of human, 1 h
# Text: One of the key obstacles that have long impeded the use of AMPs in systemic infections such as sepsis is their tendency to lyse human cells, such as red blood cells (RBCs). Thus, it is critical to minimize hemolytic activity as much as possible to achieve a therapeutic window. […] Of note, in those circumstances where hydrocarbon staples increase hemolytic activity due to increasing hydrophobicity, the alkene moiety can be modified, e.g., by dihydroxylation, to install hydrophilic residues and potentially mitigate hemolysis.
# Hemolytic Activity Assay For the determination of hemolytic activity, the following protocol was applied: human blood samples were centrifuged to isolate red blood cells (RBCs), which were then washed and suspended in phosphate-buffered saline to yield a 1% (v/v) suspension. This suspension was then added to serial dilutions of peptide stocks in water in clear round-bottom polypropylene 96-well plates and the plates incubated for 1 hour at 37° C. After incubation, the plates were centrifuged and the supernatant isolated to determine the amount of hemoglobin released using a spectrophotometer (570 nm). The minimum hemolytic concentration (MHC) was determined by assessing the peptide concentration at which there was less than 1% hemoglobin release.
Compound,helicity (circular dichroism),Antimicrobial Activity NIC (μg/ml) E. coli (E. coli),antimicrobial activity (in words) (E. coli; compared to unstapled buforin II (F10W) and buforin II),hemolytic activity (in words) [1],% Hemolysis at 50 μg/ml [1]
CC(C)C[C@H](NC(=O)CNC(=O)[C@H](C)NC(=O)[C@H](CCCNC(=N)N)NC(=O)[C@H](CO)NC(=O)[C@H](CO)NC(=O)[C@H](CCCNC(=N)N)NC(=O)[C@@H](N)[C@@H](C)O)C(=O)N[C@@]1(C)CCCC=CCCC[C@@](C)(C(=O)N[C@@H](CCCNC(=N)N)C(=O)N[C@H](C(=O)N[C@@H](Cc2c[nH]cn2)C(=O)N[C@@H](CCCNC(=N)N)C(=O)N[C@@H](CC(C)C)C(=O)N[C@@H](CC(C)C)C(=O)N[C@@H](CCCNC(=N)N)C(=O)N[C@@H](CCCCN)C(N)=O)C(C)C)NC(=O)[C@H](C(C)C)NC(=O)[C@@H]2CCCN2C(=O)[C@H](Cc2c[nH]c3ccccc23)NC1=O [BFStap(i + 4)7] (H-TRSSRAGL[S5]WPV[S5]RVHRLLRK-NH2; staple 9-13; N-terminus and C-terminus assumed),6.9%,6.3 µg/mL,greatest increase in antimicrobial activity,low hemolytic activity,3.4%
CC(C)C[C@H](NC(=O)CNC(=O)[C@H](C)NC(=O)[C@H](CCCNC(=N)N)NC(=O)[C@H](CO)NC(=O)[C@H](CO)NC(=O)[C@H](CCCNC(=N)N)NC(=O)[C@@H](N)[C@@H](C)O)C(=O)N[C@]1(C)CCCCCCC=CCCC[C@@](C)(C(=O)N[C@@H](CCCNC(=N)N)C(=O)N[C@@H](CC(C)C)C(=O)N[C@@H](CC(C)C)C(=O)N[C@@H](CCCNC(=N)N)C(=O)N[C@@H](CCCCN)C(N)=O)NC(=O)[C@H](C(C)C)NC(=O)[C@H](CCCNC(=N)N)NC(=O)CNC(=O)[C@H](C(C)C)NC(=O)[C@@H]2CCCN2C(=O)[C@H](Cc2c[nH]c3ccccc23)NC1=O [BFStap(i + 7)4] (H-TRSSRAGL[R8]WPVGRV[S5]RLLRK-NH2; staple 9-16; N-terminus and C-terminus assumed),2.4%,3.1 µg/mL,,,57.0%
CC(C)C[C@H](NC(=O)CNC(=O)[C@]1(C)CCCC=CCCC[C@](C)(NC(=O)[C@@H](N)[C@@H](C)O)C(=O)N[C@@H](CO)C(=O)N[C@@H](CO)C(=O)N[C@@H](CCCNC(=N)N)C(=O)N1)C(=O)N[C@@H](CCC(N)=O)C(=O)N[C@@H](Cc1c[nH]c2ccccc12)C(=O)N1CCC[C@H]1C(=O)N[C@H](C(=O)NCC(=O)N[C@@H](CCCNC(=N)N)C(=O)N[C@H](C(=O)N[C@@H](Cc1c[nH]cn1)C(=O)N[C@@H](CCCNC(=N)N)C(=O)N[C@@H](CC(C)C)C(=O)N[C@@H](CC(C)C)C(=O)N[C@@H](CCCNC(=N)N)C(=O)N[C@@H](CCCCN)C(N)=O)C(C)C)C(C)C [BFStap(i + 4)12] (H-T[S5]SSR[S5]GLQWPVGRVHRLLRK-NH2; staple 2-6; N-terminus and C-terminus assumed),5.3%,>100 µg/mL,,,2.4%
CC(C)C[C@H](NC(=O)CNC(=O)[C@H](C)NC(=O)[C@H](CCCNC(=N)N)NC(=O)[C@H](CO)NC(=O)[C@H](CO)NC(=O)[C@H](CCCNC(=N)N)NC(=O)[C@@H](N)[C@@H](C)O)C(=O)N[C@@H](CCC(N)=O)C(=O)N[C@@H](Cc1c[nH]c2ccccc12)C(=O)N1CCC[C@H]1C(=O)N[C@H](C(=O)NCC(=O)N[C@]1(C)CCCCCCC=CCCC[C@@](C)(C(N)=O)NC(=O)[C@H](CCCNC(=N)N)NC(=O)[C@H](CC(C)C)NC(=O)[C@H](CC(C)C)NC(=O)[C@H](CCCNC(=N)N)NC(=O)[C@H](Cc2c[nH]cn2)NC(=O)[C@H](C(C)C)NC1=O)C(C)C [BFStap(i + 7)1] (H-TRSSRAGLQWPVG[R8]VHRLLR[S5]-NH2; staple 14-21; N-terminus and C-terminus assumed),16.9%,10.4 µg/mL,,,16.6%
CC(C)C[C@@H]1NC(=O)CNC(=O)[C@](C)(NC(=O)[C@H](CCCNC(=N)N)NC(=O)[C@H](CO)NC(=O)[C@H](CO)NC(=O)[C@H](CCCNC(=N)N)NC(=O)[C@@H](N)[C@@H](C)O)CCCCCCC=CCCC[C@@](C)(C(=O)N[C@@H](CCCNC(=N)N)C(=O)N[C@H](C(=O)N[C@@H](Cc2c[nH]cn2)C(=O)N[C@@H](CCCNC(=N)N)C(=O)N[C@@H](CC(C)C)C(=O)N[C@@H](CC(C)C)C(=O)N[C@@H](CCCNC(=N)N)C(=O)N[C@@H](CCCCN)C(N)=O)C(C)C)NC(=O)[C@H](C(C)C)NC(=O)[C@@H]2CCCN2C(=O)[C@H](Cc2c[nH]c3ccccc23)NC(=O)[C@H](CCC(N)=O)NC1=O [BFStap(i + 7)7] (H-TRSSR[R8]GLQWPV[S5]RVHRLLRK-NH2; staple 6-13; N-terminus and C-terminus assumed),11.6%,22.9 µg/mL,,,3.0%
CC(C)C[C@H](NC(=O)CNC(=O)[C@H](C)NC(=O)[C@H](CCCNC(=N)N)NC(=O)[C@H](CO)NC(=O)[C@H](CO)NC(=O)[C@H](CCCNC(=N)N)NC(=O)[C@@H](N)[C@@H](C)O)C(=O)N[C@@H](CCC(N)=O)C(=O)N[C@@H](Cc1c[nH]c2ccccc12)C(=O)N1CCC[C@H]1C(=O)N[C@H](C(=O)N[C@]1(C)CCCCCCC=CCCC[C@@](C)(C(=O)N[C@@H](CCCCN)C(N)=O)NC(=O)[C@H](CC(C)C)NC(=O)[C@H](CC(C)C)NC(=O)[C@H](CCCNC(=N)N)NC(=O)[C@H](Cc2c[nH]cn2)NC(=O)[C@H](C(C)C)NC(=O)[C@H](CCCNC(=N)N)NC1=O)C(C)C [BFStap(i + 7)2] (H-TRSSRAGLQWPV[R8]RVHRLL[S5]K-NH2; staple 13-20; N-terminus and C-terminus assumed),15.6%,33.3 µg/mL,,,3.1%
CC(C)C[C@H](NC(=O)CNC(=O)[C@H](C)NC(=O)[C@]1(C)CCCC=CCCC[C@](C)(N)C(=O)N[C@@H](CCCNC(=N)N)C(=O)N[C@@H](CO)C(=O)N[C@@H](CO)C(=O)N1)C(=O)N[C@@H](CCC(N)=O)C(=O)N[C@@H](Cc1c[nH]c2ccccc12)C(=O)N1CCC[C@H]1C(=O)N[C@H](C(=O)NCC(=O)N[C@@H](CCCNC(=N)N)C(=O)N[C@H](C(=O)N[C@@H](Cc1c[nH]cn1)C(=O)N[C@@H](CCCNC(=N)N)C(=O)N[C@@H](CC(C)C)C(=O)N[C@@H](CC(C)C)C(=O)N[C@@H](CCCNC(=N)N)C(=O)N[C@@H](CCCCN)C(N)=O)C(C)C)C(C)C [BFStap(i + 4)13] (H-[S5]RSS[S5]AGLQWPVGRVHRLLRK-NH2; staple 1-5; N-terminus and C-terminus assumed),0%,>100 µg/mL,,,2.4%
CC(C)C[C@H](NC(=O)CNC(=O)[C@H](C)NC(=O)[C@H](CCCNC(=N)N)NC(=O)[C@H](CO)NC(=O)[C@H](CO)NC(=O)[C@H](CCCNC(=N)N)NC(=O)[C@@H](N)[C@@H](C)O)C(=O)N[C@@H](CCC(N)=O)C(=O)N[C@@H](Cc1c[nH]c2ccccc12)C(=O)N1CCC[C@H]1C(=O)N[C@H](C(=O)NCC(=O)N[C@@]1(C)CCCC=CCCC[C@@](C)(C(=O)N[C@@H](CC(C)C)C(=O)N[C@@H](CCCNC(=N)N)C(=O)N[C@@H](CCCCN)C(N)=O)NC(=O)[C@H](CCCNC(=N)N)NC(=O)[C@H](Cc2c[nH]cn2)NC(=O)[C@H](C(C)C)NC1=O)C(C)C [BFStap(i + 4)4] (H-TRSSRAGLQWPVG[S5]VHR[S5]LRK-NH2; staple 14-18; N-terminus and C-terminus assumed),6%,29.2 µg/mL,,,2.9%
CC(C)C[C@H](NC(=O)CNC(=O)[C@H](C)NC(=O)[C@H](CCCNC(=N)N)NC(=O)[C@H](CO)NC(=O)[C@H](CO)NC(=O)[C@H](CCCNC(=N)N)NC(=O)[C@@H](N)[C@@H](C)O)C(=O)N[C@@H](CCC(N)=O)C(=O)N[C@@H](Cc1c[nH]c2ccccc12)C(=O)N1CCC[C@H]1C(=O)N[C@H](C(=O)N[C@@]1(C)CCCC=CCCC[C@@](C)(C(=O)N[C@@H](CC(C)C)C(=O)N[C@@H](CC(C)C)C(=O)N[C@@H](CCCNC(=N)N)C(=O)N[C@@H](CCCCN)C(N)=O)NC(=O)[C@H](Cc2c[nH]cn2)NC(=O)[C@H](C(C)C)NC(=O)[C@H](CCCNC(=N)N)NC1=O)C(C)C [BFStap(i + 4)5] (H-TRSSRAGLQWPV[S5]RVH[S5]LLRK-NH2; staple 13-17; N-terminus and C-terminus assumed),8.8%,66.7 µg/mL,,,3.0%
